We go through ten compounds from PubChem BioAssay (NCI).

Common to all, as to assay: NCI-60 cell line screen, 48 h
Experiment [1] has as its system A549 NSCLC.
In experiment [2] the test system is NCI-H522 lung.
For experiment [3], the system named is T-47D breast.
Experiment [4] concerns SW-620 colon.
Experiment [5] relates to SR leukemia.
The test system of experiment [6] is NCI-H23 lung.
Experiment [7] relates to HOP-92 NSCLC.
Experiment [8] deals with RXF 393 renal.

Several values for one entry are separate records, joined by “and”; a condition that tells them apart may be missing. Identical values can stand only once.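 Assay format: 96-well plates, 48-hour exposure. GI50 is the concentration that inhibits growth by half. Definition used: TGI = concentration required for complete inhibition of growth.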

Take `CCOc1ccc2c(c1)CN(Cc1ccc(Cl)cc1)CO2`: the GI50 in experiment [1] is 35100 nM; in experiment [2], 15900 nM; in experiment [3], 17800 nM; in experiment [4] it was 16400 nM; in experiment [5], 15600 nM; in experiment [6], 25800 nM. The GI50 was 8630 nM in experiment [7] and 13800 nM in experiment [8]. Moreover, the TGI in experiment [1] was > 100 µM; in experiment [2] it was 34 µM; in experiment [3], 52.7 µM; in experiment [4], 32.1 µM; in experiment [5], 63.7 µM; in experiment [6], 94.5 µM. Further, the TGI was 36.8 µM in experiment [7] and 29.3 µM in experiment [8].

As for `CC(c1ccccc1)[C@@H](C(=O)Nc1ccc(I)cc1F)N1C(=O)N[C@H](c2ccc(OC[C@H](O)CO)cc2)C1=O` (some centres undefined), the GI50 is > 14300 nM in experiment [1]; > 17800 nM in experiment [2]; 10200 nM in experiment [3]; 1090 nM in experiment [4]; > 20500 nM in experiment [5]; 902 nM in experiment [6]. In addition, the GI50 was 552 nM in experiment [7] and 4200 nM in experiment [8]. Moreover, the TGI in experiment [1], in experiment [2], in experiment [3], in experiment [4], in experiment [5] and in experiment [6] was > 25 µM in each case. Besides, the TGI was 7.03 µM in experiment [7] and > 22.6 µM in experiment [8].

In the case of `O=C(Nc1ccccc1C(F)(F)F)c1ccc(NC2=C(Cl)C(=O)N(Cc3ccccc3)C2=O)cc1`, the GI50 in experiment [1] is 40500 nM; in experiment [2], 40300 nM; in experiment [3], > 100000 nM; in experiment [4] it was > 100000 nM; in experiment [5] it was 1850 nM; in experiment [6], 15600 nM. The GI50 in experiment [7] is 11300 nM; in experiment [8] it was 13800 nM. For the same compound, the TGI in experiment [1] was > 100 µM; in experiment [2] it was > 100 µM; in experiment [3] it was > 100 µM; in experiment [4], > 100 µM; in experiment [5] it was 3.86 µM; in experiment [6], 34.2 µM. The TGI worked out at 35.2 µM in experiment [7] and 37.7 µM in experiment [8].

As to `CN(C)Cc1ccc(C(C)(C)C)cc1-c1cc(C(C)(C)C)ccc1CN(C)C`, the TGI in experiment [1], in experiment [2], in experiment [3], in experiment [4], in experiment [5] and in experiment [6] was > 100 µM in each case. The TGI in experiment [7] and in experiment [8] was > 100 µM throughout.

Regarding `COc1ccc(Cn2cc3c(c2)-c2oncc2CC3)cc1OC`, the GI50 is 283 nM in experiment [1]; 146 nM in experiment [2]; 267 nM in experiment [3]; 153 nM in experiment [4]; 164 nM in experiment [5]; 200 nM in experiment [6]. In addition, the GI50 in experiment [7] is 1150 nM; in experiment [8], 173 nM. Moreover, the TGI in experiment [1] was 48.4 µM; in experiment [2], 0.677 µM; in experiment [3], > 19.3 µM; in experiment [4], > 50 µM; in experiment [6] it was > 25.3 µM; in experiment [7], 36.3 µM.

`COc1c(O)cc2c(c1O)C(=O)C1=C(CCCC1)C2=O`: the TGI in experiment [1] was 87.3 µM; in experiment [2], 31.8 µM; in experiment [3], 50.2 µM; in experiment [4], > 100 µM; in experiment [5], 34.2 µM; in experiment [6], 41.3 µM. For the same compound, the TGI is 82.7 µM in experiment [7] and 45 µM in experiment [8].

Regarding `COc1cc(/C=C/C(=O)/C=C/c2cc3ccc(Cl)cc3n(Cc3ccccc3)c2=O)ccc1O`, the GI50 was 2050 nM in experiment [1]; 1670 nM in experiment [2]; 2020 nM in experiment [3]; 1560 nM in experiment [4]; 457 nM in experiment [5]; 1790 nM in experiment [6]. The GI50 is 2210 nM in experiment [7] and 1800 nM in experiment [8]. For the same compound, the TGI in experiment [1] was 5.03 µM; in experiment [2] it was 3.5 µM; in experiment [3] it was 11.5 µM; in experiment [4], 4.33 µM; in experiment [5] it was > 100 µM; in experiment [6], 4.65 µM. Also, the TGI was found to be 5.44 µM in experiment [7] and 3.34 µM in experiment [8].

For `Cc1nc(-c2cnc(NC(C)C)n(C)c2=O)ccc1Oc1ccnc(-c2cnn(C)c2)c1`, the GI50 in experiment [1] is 15000 nM; in experiment [2], 5770 nM; in experiment [3], 7390 nM; in experiment [4], 5490 nM; in experiment [5], 2990 nM; in experiment [6], 13300 nM. Further, the GI50 in experiment [7] was 7440 nM; in experiment [8], 10700 nM. Also, the TGI in experiment [1] is > 100 µM; in experiment [2] it was 71.9 µM; in experiment [3], 99.7 µM; in experiment [4] it was > 100 µM; in experiment [5], 29.1 µM; in experiment [6], > 100 µM. The TGI was 53.1 µM in experiment [7] and 44 µM in experiment [8].

`CCN(CC)c1ccc(C2NC(=O)c3ccccc3N2)cc1` (centres undefined): the TGI in experiment [1], in experiment [2], in experiment [3], in experiment [4], in experiment [5] and in experiment [6] was > 100 µM each time. The TGI is 66.5 µM in experiment [7] and > 100 µM in experiment [8].

Consider `Nc1cc(C(F)(F)F)c(-c2cc(N3CCOCC3)nc(N3CCOCC3)n2)cn1`, for which the GI50 was 1170 nM and 1290 nM in experiment [1]; 504 nM and 290 nM in experiment [2]; 145 nM and 273 nM in experiment [3]; 1000 nM and 717 nM in experiment [4]; 397 nM and 410 nM in experiment [5]; 1170 nM and 1280 nM in experiment [6]. Further, the GI50 was 162 nM and 72.3 nM in experiment [7]; 561 nM and 650 nM in experiment [8]. Moreover, the TGI in experiment [1] is 7.06 µM and 4.99 µM; in experiment [2], 3.93 µM and 1.64 µM; in experiment [3], 0.77 µM and 1.31 µM; in experiment [4], > 100 µM; in experiment [5], > 30 µM; in experiment [6], > 84.6 µM. Besides, the TGI in experiment [7] was 1.17 µM and 0.617 µM; in experiment [8], 2.83 µM and 3.26 µM.
